Data from patent US12029739B2, “SHP2 inhibitor and use thereof” (KANAPH THERAPEUTICS INC., priority 2021, dated 2024).
Read-outs that look alike come from different tables or passages of the source.

Experiments:
[1] = molecular target: T1, SHP2 (full length) (Homo sapiens, UniProt Q06124); assay: Phosphatase assay (PTPase assay) with DiFMUP substrate; assay type: biochemical; conditions: SHP2 activated with SHP2 activating peptide, DiFMUP 80 μM, 2 hours, fluorescence
T1 construct: SHP2 (full length, diluted to 100 pM final concentration in reaction buffer, BPS bioscience, US); purchased BPS bioscience, US
T1 sequence (Q06124 1-593): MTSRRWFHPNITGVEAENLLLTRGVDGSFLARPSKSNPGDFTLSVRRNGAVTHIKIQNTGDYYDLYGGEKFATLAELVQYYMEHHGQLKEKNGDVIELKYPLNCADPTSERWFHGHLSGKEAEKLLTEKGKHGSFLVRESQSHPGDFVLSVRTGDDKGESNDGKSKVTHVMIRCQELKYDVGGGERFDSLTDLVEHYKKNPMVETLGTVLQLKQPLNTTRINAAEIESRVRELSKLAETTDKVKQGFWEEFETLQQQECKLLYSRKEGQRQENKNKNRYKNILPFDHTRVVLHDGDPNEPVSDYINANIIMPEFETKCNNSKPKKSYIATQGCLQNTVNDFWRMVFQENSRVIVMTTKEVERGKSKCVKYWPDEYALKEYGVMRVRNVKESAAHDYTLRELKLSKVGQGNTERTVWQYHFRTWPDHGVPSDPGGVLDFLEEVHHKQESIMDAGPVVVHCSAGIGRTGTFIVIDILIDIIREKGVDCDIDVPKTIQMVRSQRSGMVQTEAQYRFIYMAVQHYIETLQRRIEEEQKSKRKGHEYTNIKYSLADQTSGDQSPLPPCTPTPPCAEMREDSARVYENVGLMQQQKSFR

[2] = test system: phospho-ERK in MIA PaCa2 or H358 cells; assay: Phospho-ERK assay (AlphaLisa); assay type: cell-based
[3] = 1.5 h, MIA PaCa2 or H358 cells, compound incubated 1.5 hours, read-out: IC50 (p-ERK)
[4] = 1.5 h, read-out: IC50 (p-ERK, nM)
[5] = MIA PaCa2 or H358 cells, compound incubated 1.5 hours, read-out: IC50 (p-ERK)

| SMILES | IC50 ([1]; read-out: IC50 (PTPase aS say)) [nM] | IC50 [2, 3] [nM] | IC50 ([1]; IC50 (PTPase aS say, nM)) [nM] | IC50 [2, 4] [nM] | IC50 [2, 5] [nM] |
| --- | --- | --- | --- | --- | --- |
| COCCn1cnc2ccc(Sc3cnc(N4CCC5(CC4)Cc4ncsc4[C@H]5N)c(CO)n3)c(Cl)c2c1=O [Example 169, (S)-6-((5-(6-amino-4,6-dihydrospiro[yclopenta[d]thiazole-5,4′-piperidin]-1′-yl)-6-(hydroxymethyl)pyrazin-2-yl)thio)-5-chloro-3-(2-methoxyethyl)quinazolin-4(3H)-one] | < 3 | < 45 |  |  |  |
| CC(C)(O)Cn1cnc2ccc(Sc3ncc(N4CCC5(CC4)Cc4ncsc4[C@H]5N)nc3N)c(Cl)c2c1=O [Example 166, (S)-6-((3-amino-5-(6-amino-4,6-dihydrospiro[cyclopenta[d]thiazole-5,4′-piperidin]-1′-yl)pyrazin-2-yl)thio)-5-chloro-3-(2-hydroxy-2-methylpropyl)quinazolin-4(3H)-one] | < 3 | < 45 |  |  |  |
| C[C@@H]1OCC2(CCN(c3cnc(Sc4ccc5ncn(CCN(C)S(C)(=O)=O)c(=O)c5c4Cl)cn3)CC2)[C@@H]1N [Example 123, N-(2-(6-((5-((3S,4S)-4-amino-3-methyl-2-oxa-8-azaspiro[4,5]decan-8-yl)pyrazin-2-yl)thio)-5-chloro-4-oxoquinazolin-3(4H)-yl]ethyl)-N-methylmethanesulfonamide] | < 3 | < 45 |  |  |  |
| C[C@@H]1OCC2(CCN(c3cnc(Sc4ccc5ncn(-c6ccccc6)c(=O)c5c4Cl)cn3)CC2)[C@@H]1N [Example 51, 6-((5-((3S,4S)-4-amino-3-methyl-2-oxa-8-azaspiro[4.5]decan-8-yl)pyrazin-2-yl)thio)-5-chloro-3-phenylquinazolin-4(3H)-one] | < 3 | 45 to 1500 |  |  |  |
| CC(C)(O)Cn1cnc2ccc(Sc3cnc(N4CCC5(CC4)Cc4scnc4[C@H]5N)cn3)c(Cl)c2c1=O [Example 160, 6-[5-[(4S)-4-amino[4,6-dihydrocyclopenta[d]thiazole-5,4′-piperidin]-1′-yl]pyrazin-2-yl]sulfanyl-5-chloro-3-(2-hydroxy-2-methyl-propyl)quinazolin-4-one] | < 3 | < 45 |  |  |  |
| COc1ccc(Cn2cnc3ccc(Sc4cnc(N5CCC6(CC5)CO[C@@H](C)[C@H]6N)cn4)c(Cl)c3c2=O)cc1F [Example 73, 6-((5-((3S,4S)-4-amino-3-methyl-2-oxa-8-azaspiro[4.5]decan-8-yl)pyrazin-2-yl)thio)-5-chloro-3-(3-fluoro-4-methoxybenzyl)quinazolin-4(3H)-one] | < 3 | < 45 |  |  |  |
| C[C@@H]1OCC2(CCN(c3cnc(Sc4ccc5ncn(CC6CCOCC6)c(=O)c5c4Cl)cn3)CC2)[C@@H]1N [Example 65, 6-((5-((3S,4S)-4-amino-3-methyl-2-oxa-8-azaspiro[4.5]decan-8-yl)pyrazin-2-yl)thio)-5-chloro-3-((tetrahydro-2H-pyran-4-yl)methyl)quinazolin-4(3H)-one] | < 3 | < 45 |  |  |  |
| N[C@@H]1c2ccccc2CC12CCN(c1cnc(Sc3ccc4ncn(CC5CCOC5)c(=O)c4c3Cl)cn1)CC2 (stereo partly drawn) [Example 103, 6-((5-((S)-1-amino-1,3-dihydrospiro[indene-2,4′-piperidin]-1′-yl]pyrazin-2-yl]thio)-5-chloro-3-((tetrahydrofuran-3-yl)methyl)quinazolin-4(3H)-one] | < 3 | < 45 |  |  |  |
| N[C@H]1c2ccccc2CC12CCN(c1cnc(Sc3ccc4ncn(CC5CCOC5)c(=O)c4c3Cl)cn1)CC2 (stereo partly drawn) [Example 104, 6-((5-((R)-1-amino-1,3-dihydrospiro(indene-2,4′-piperidin]-1′-yl]pyrazin-2-yl]thio)-5-chloro-3-((tetrahydrofuran-3-yl)methyl)quinazolin-4(3H)-one] | < 3 | < 45 |  |  |  |
| CC(O)CCn1cnc2ccc(Sc3cnc(N4CCC5(CC4)Cc4ncccc4[C@H]5N)cn3)c(Cl)c2c1=O (stereo partly drawn) [Example 111, (6-((5-((S)-5-amino-5,7-dihydrospiro[yclopenta[b]pyridine]-6,4′-piperidin]-1′-yl)pyrazin-2-yl]thio)-5-chloro-3-(3-hydroxybutyl)quinazolin-4(3H)-one] | < 3 | < 45 |  |  |  |
| CC1(N)CCN(c2cnc(Sc3cccc(S(=O)(=O)F)c3Cl)cn2)CC1 [Example 7, 3-((5-(4-amino-4-methylpiperidin-1-yl)pyrazin-2-yl)thio)-2-chlorobenzenesulfonyl fluoride] |  |  | 3 to 100 | 45 to 1500 |  |
| CC1(CN)CCN(c2cnc(Sc3ccc4ncn(Cc5ccccc5)c(=O)c4c3Cl)cn2)CC1 [Example 13, 6-((5-(4-(aminomethyl)-4-methylpiperidin-1-yl)pyrazin-2-yl)thio)-3-benzyl-5-chloroquinazolin-4(3H)-one] | 3 to 100 |  |  |  | 45 to 1500 |
| COCCn1cnc2ccc(Sc3cnc(N4CCC5(CC4)Cc4ccc(O)cc4[C@H]5N)cn3)c(Cl)c2c1=O [Example 163, (S)-6-((5-(1-amino-6-hydroxy-1,3-dihydrospiro(indene-2,4′-piperidin]-1′-yl)pyrazin-2-yl)thio)-5-chloro-3-(2-methoxyethyl)quinazolin-4(31-1)-one] | < 3 | < 45 |  |  |  |
| COC(=O)c1cccc(Sc2cnc(N3CCC(C)(N)CC3)cn2)c1Cl [Example 1, methyl 3-((5-(4-amino-4-methylpiperidin-1-yl)pyrazin-2-yl)thio)-2-chlorobenzoate] | 3 to 100 | 45 to 1500 |  |  |  |
| C[C@@H]1OCC2(CCN(c3cnc(Sc4ccnc(C(=O)NCc5cccnc5)c4Cl)cn3)CC2)[C@@H]1N [Example 87, 4-((5-((3S,4S)-4-amino-3-methyl-2-oxa-8-azaspiro[4.5]decan-8-yl)pyrazin-2-yl)thio)-3-chloro-N-(pyridin-3-ylmethyl)picolinamide] | 3 to 100 | 45 to 1500 |  |  |  |
| CC1(CN)CCN(c2cnc(Sc3ccc4nc[nH]c(=O)c4c3Cl)cn2)CC1 [Example 3, 6-((5-(4-(aminomethyl)-4-methylpiperidin-1-yl)pyrazin-2-yl)thio)-5-chloroquinazolin-4(3H)-one] | 3 to 100 | 45 to 1500 |  |  |  |
| CC(C)(O)Cn1cnc2ccc(Sc3cnc(N4CCC5(CC4)Cc4ncccc4[C@@H]5N)cn3)c(Cl)c2c1=O [Example 159, 6-[5-[(5R)-5-aminospiro[5,7-dihydrocyclopenta[b]pyridine-6,4′-piperidin]-1′-yl]pyrazin-2-yl]sulfanyl-5-chloro-3-(2-hydroxy-2-methylpropyl)quinazolin-4-one] | < 3 | < 45 |  |  |  |
| C[C@@H]1OCC2(CCN(c3cnc(Sc4cccc(S(N)(=O)=O)c4Cl)c(N)n3)CC2)[C@@H]1N [Example 12, 3-((3-amino-5-((3S,4S)-4-amino-3-methyl-2-oxa-8-azaspiro[4.5]decan-8-yl)pyrazin-2-yl)thio)-2-chlorobenzenesulfonamide] | 3 to 100 |  |  |  | 45 to 1500 |
| CC1(CN)CCN(c2cnc(Sc3cccc(S(=O)(=O)F)c3Cl)cn2)CC1 [Example 6, 3-((5-(4-(aminomethyl)-4-methylpiperidin-1-yl)pyrazin-2-yl)thio)-2-chlorobenzenesulfonyl fluoride] |  |  | 3 to 100 | 45 to 1500 |  |
| C[C@@H]1OCC2(CCN(c3cnc(Sc4ccc5ncn(CCCF)c(=O)c5c4Cl)cn3)CC2)[C@@H]1N [Example 77, 6-((5-((3S,4S)-4-amino-3-methyl-2-oxa-8-azaspiro[4.5]decan-8-yl)pyrazin-2-yl)thio)-5-chloro-3-(3-fluoropropyl)quinazolin-4(3H)-one] | < 3 | < 45 |  |  |  |
